Laboratory results: article PMC9574860, “Chemical Toolkit for PARK7: Potent, Selective, and High-Throughput” (Journal of Medicinal Chemistry, 2022)

What was measured:
PARK7 [1] = biological target: T1, PARK7 (Homo sapiens, UniProt Q99497); test: Probe labeling of purified recombinant PARK7 (SDS-PAGE, fluorescence scanning); assay type: binding; set-up: GST (N, cleaved yes); made in house; host or cells: E. coli BL21(DE3) Rosetta2; settings: for Probe concentration from which PARK7 labeling was observed: purified PARK7 1 μM, 1 h 37 °C, Figure 4A
T1 sequence (Q99497 1-189): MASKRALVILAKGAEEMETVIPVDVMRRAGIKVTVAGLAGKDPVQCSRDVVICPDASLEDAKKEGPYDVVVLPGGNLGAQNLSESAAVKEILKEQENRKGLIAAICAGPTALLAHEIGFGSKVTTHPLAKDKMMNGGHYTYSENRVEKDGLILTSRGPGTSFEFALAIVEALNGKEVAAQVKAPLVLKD
From the text: PARK7 inhibitor JYQ-88 was further converted into activity-based probes by installing SulfoCy5, Rhodamine110, or BodipyFL. We took advantage of the azide moiety in JYQ-88 and conjugated alkyne versions of these dyes using the copper(I)-catalyzed azide alkyne cycloaddition (CuAAC) to obtain compounds JYQ-92, JYQ-93, and JYQ-107 (Scheme 2). We next investigated the ability of the probes to label and visualize PARK7. […] The SulfoCy5 probe JYQ-92 and Rhodamine110 probe JYQ-107 labeled PARK7 already at 1 μM, while the BodipyFL probe JYQ-93 was less efficient than the other probes as PARK7 labeling was only observed from 5 μM.
All the labeling assays were performed in Tris buffer (50 mM Tris–HCl, 150 mM NaCl, 2 mM TCEP, pH 7.5). For labeling with the 8RK59 probe, 1 μM final concentrations of UCHL1 and PARK7 were individually or together incubated with 2 μM final concentrations of 8RK59 for 30 min at 37 °C, followed by protein visualization. For labeling with JYQ-92, JYQ-93, and JYQ-107, 1 μM final concentration of PARK7 was incubated with different concentrations (0, 0.1, 0.5, 1, 2, 5, and 10 μM) of the indicated probes for 1 h at 37 °C. […] These samples were resolved by SDS-PAGE using precast Bis-Tris gels (Invitrogen, NuPAGE) with MES SDS running buffer (Novex, NuPAGE).

PARK7 [2] = biological target: T1, PARK7; test: Probe JYQ-92 labeling of endogenous PARK7 in HEK293T cell lysate; settings: 0–5 μM probe, 1 h, Figure 4C
Description: (§1) We next investigated the ability of JYQ-92 to label PARK7 activity in HEK293T cell lysates by treating with the increasing concentration of JYQ-92 (0–5 μM) for 1 h. […] To study its specificity toward PARK7 compared to UCHL1 in more detail, HEK293T cell lysates where we knockdown PARK7 or UCHL1 were treated with 1 μM final concentration of JYQ-92.
(§2) The samples were kept on ice and sonicated using 10 cycles of 30 s pulse on and 30 s pulse off (Bioruptor, Diagenode). […] For the labeling experiments, the prepared cell lysate was incubated with an indicated concentration of JYQ-92 in each experiment for 1 h at 37 °C. The reactions were stopped by adding NuPAGE LDS sample buffer (4×).

UCHL1 [3] = biological target: T2, UCHL1 (Homo sapiens, UniProt P09936); test: UCHL1 activity assay (Ub-Rho-Morpholine or Ub-AMC substrate); assay type: biochemical; settings: UCHL1 1 nM, 1 h preincubation; read-out: UbRhoMP assay UCHL1 IC50
T2 sequence (P09936 1-223): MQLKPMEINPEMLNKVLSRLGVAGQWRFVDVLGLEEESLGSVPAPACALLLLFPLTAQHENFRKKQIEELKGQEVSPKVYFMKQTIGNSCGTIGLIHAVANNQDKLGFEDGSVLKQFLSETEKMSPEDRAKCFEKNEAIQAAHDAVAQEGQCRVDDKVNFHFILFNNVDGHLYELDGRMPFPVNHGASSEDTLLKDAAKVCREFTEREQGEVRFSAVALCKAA
Description: The assay was performed in a buffer containing 50 mM Tris·HCl, 100 mM NaCl at pH 7.5, 2.0 mM cysteine, 1 mg/mL 3-[(3-cholamidopropyl)dimethylammonio]propanesulfonic acid (CHAPS), and 0.5 mg/mL bovine serum albumin and conducted in a 384-well plate (Corning 3820) with a reaction volume 20 μL in triplicate. The compounds were dissolved in DMSO as 10, 1, and 0.1 mM stock solutions and were transferred to obtain a 12-point serial dilution of 0.05 to 200 μM. Next, UCHL1 (15 μL, final concentration of 1 nM) was dispensed with a Biotek MultiFlowFX liquid dispenser and incubated for 1 h, followed by dispensing the substrate Ub-Rho-Morpholine or Ub-AMC (5 μL, final concentration of 400 nM). The FI signal was monitored with a BMG Labtech PHERAstar plate reader (λex/em 487/535 nm or λex/em 350/450 nm) for 1 h. N-Ethylmaleimide (NEM, 10 mM) was used as a positive control (100% inhibition), and DMSO was used as a negative control (0% inhibition). All samples were normalized to the positive and negative controls and plotted against the inhibitor concentrations (in μM) using the built-in equation “[inhibitor] vs response – variable slope (four parameters), least-squares fit” with constraints “Bottom = 0” and “Top = 100” in GraphPad Prism 9.0.1 software to obtain the IC50 values.

UCHL1 [4] = biological target: T2, UCHL1; test: JYQ-92 labeling in HEK293T cell lysate with UCHL1 knockdown; settings: HEK293T lysate with PARK7 or UCHL1 knockdown, probe 1 μM; Figure 4D
Description: as §1, §2

DUBs = test: DUB activity profiling in HEK293T cell lysate with general DUB probe Rho-Ub-PA; assay type: biochemical; settings: compound 5 μM 1 h 37 °C, then Rho-Ub-PA 30 min, Figure S5
Description: Due to the structural similarity of PARK7 inhibitor JYQ-88 and UCHL1 inhibitor 8RK64 and the fact that many cyanimide-containing compounds have been identified as DUB inhibitors,[35],[37] we investigated the inhibitory potential of JYQ-88 and JYQ-92 toward DUBs. After treating the HEK293T cell lysate with JYQ-88 and JYQ-92, along with UCHL1 inhibitors, 6RK73 and 8RK64 as controls,[38] the remaining activity of DUBs was determined using the general DUB probe Rho-Ub-PA (Figure S5).[39]
Figure S5. Fluorescence labeling of DUBs to investigate their remaining activity by Rh-Ub-
PA after the treatment with PARK7 inhibitor JYQ-88 and probe JYQ-92. UCHL1 inhibitors,
6RK73 and 8RK64, were used as a control. HEK293T cell lysate was treated with 5 μM final
MOPS SDS running buffer (Novex, NuPAGE) and visualized by fluorescence scanning on a
Typhoon FLA 9500 (GE Healthcare Life Sciences) using a Rhodamine channel (λex/em
(1 picture or pasted object on this page, not shown here)

PARK7 [5] = biological target: T1, PARK7; test: FP binding saturation experiment, kinact/KI of probe JYQ-107; set-up: GST (N, cleaved yes); made in house; host or cells: E. coli BL21(DE3) Rosetta2; settings: FP probe binding to PARK7 (0 to 5 μM); slope of kobs vs PARK7 concentration; Figure S6D
Description: First, the relation between the change in FP values for JYQ-107 binding to PARK7 was determined. We used a fixed concentration (20 nM) of JYQ-107, incubated it with different amounts of PARK7 (0 to 5 μM), and monitored the FP signal (λex/em 485/520 nm) over time (Supporting Information Figure S6A). The change in FP (ΔmP) was plotted against PARK7 concentration after different incubation times (Figure 5B, left, Supporting Information Figure S6B). […] The latter is expected, as covalent complex formation has a time-dependency, and thus, equilibrium binding values could not be determined for the FP reagent.[45] […] To this end, we calculated the Z’ value, a critical parameter used to assess the quality and HTS suitability of a given assay, for the used PARK7 concentrations and incubation times (Figure 5B, right, Supporting Information Figure S6C).[46] […]
This assay was performed in the buffer containing 50 mM Tris–HCl, 150 mM NaCl, 2 mM TCEP, pH 7.5, and 1 mg/mL CHAPS and conducted in a 384-well plate (Corning 3820) with a reaction volume 20 μL in triplicate. A serial dilution of PARK7 from 0 to 5 μM (final concentration) was mixed with constant concentration JYQ-107 ([…]), and the increasing FP signal over time was measured at λex/em 480/520 nm using a PHERAstar (BMG Labtech) for 150 min. […]

Binding to wild-type PARK7 (PARK7 [1]; probe 2 μM, 1 h, Figure 4B) | Probe concentration from which PARK7 labeling was observed (PARK7 [1]) [µM] | Probe concentration at which a clear PARK7 band (20 kDa) was observed (PARK7 [2]) [µM] | IC50 (UCHL1 [3]) [µM] | Binding to UCHL1 in the cell lysate (UCHL1 [4]) | kinact/KI (PARK7 [5]) [M⁻¹ s⁻¹] | Structure (SMILES) | Effect on remaining DUB activity (Rho-Ub-PA labeled bands) (DUBs)
only binds to the active wild-type PARK7 | 1 | 0.5 | 19.8 | not to UCHL1 | – | CC[N+]1=C(/C=C/C=C/C=C2/N(CCCCCC(=O)NCCCc3cn(CC(=O)N4CCc5nc(NC(=O)[C@@H]6CCN(C#N)C6)sc5C4)nn3)c3ccc(S(=O)(=O)O)cc3C2(C)C)C(C)(C)c2cc(S(=O)(=O)[O-])ccc21 [JYQ-92] | no influence on DUB activity
– | 1 | – | 18.5 | – | 1180 | N#CN1CC[C@@H](C(=O)Nc2nc3c(s2)CN(C(=O)Cn2cc(CCCNC(=O)c4ccc(-c5c6ccc(=N)cc-6oc6cc(N)ccc56)c(C(=O)O)c4)nn2)CC3)C1 [JYQ-107] | –
